From patent US20120328526A1, “Modulation of Nad+ Activity in Neuropathophysiological Conditions and Uses Thereof” (University of Maryland, Baltimore, priority 2011, published 2012)
“Also recorded” adds a separate entry of the source.

Tests used:
[1] = tested on: C57Bl/6 mice subjected to moderate-level traumatic brain injury; experiment: Beam walk test after controlled cortical impact traumatic brain injury; format: in vivo, mouse; conditions: NMN 500 mg/kg I.P. at 1 hour post-injury, 7 days post-injury, p<0.001
Description: FIGS. 9A-9B show traumatic brain injury-induced deficits in sensorimotor function and cognition are ameliorated by nicotinamide mononucleotide treatment. FIG. 9A: Fine motor coordination deficits were quantified using a beam walk test in C57Bl/6 mice subjected to moderate-level traumatic brain injury and treated with nicotinamide mononucleotide (500 mg/kg, I.P.) or equal volume of vehicle at 1 hour post-injury. Hindlimb foot placement was recorded up to 7 days post-injury and the number of foot faults recorded from 50 steps. Naïve C57Bl/6 mice served as a control group. […] Analysis was by repeated measures one-way ANOVA, followed by post-hoc adjustments using Student-Newman-Keuls test. Mean ±S.E.M.; n=5/group. FIG. 9B: Cognitive performance was analyzed by measuring the number of anti-clockwise and clockwise rotations of traumatic brain injury mice in an open field test performed at 7 days post-injury.
In a clinically relevant model of traumatic brain injury, controlled cortical impact (CCI) (Fox et al. 1998), was induced in C57Bl/6 mice and these animals were followed for up to 1 year post-injury to assess post-traumatic tissue loss and neurodegeneration. […] One group was evaluated for changes between 24 h and 3 months post-injury; a second group was used to compare changes in TBI-induced lesion volume between 6 and 12 months. […]

CD38 = molecular target: T1, CD38 (Mus musculus, UniProt P56528); experiment: 1-etheno-NAD hydrolysis by isolated brain mitochondria; format: biochemical; conditions: NMN 1 mM
T1 construct: Addition of isolated brain mitochondria into medium containing 1-etheno-NAD (eNAD) results in generation of fluorescent product; from tissue; host or cells: isolated brain mitochondria
T1 sequence (P56528 1-304): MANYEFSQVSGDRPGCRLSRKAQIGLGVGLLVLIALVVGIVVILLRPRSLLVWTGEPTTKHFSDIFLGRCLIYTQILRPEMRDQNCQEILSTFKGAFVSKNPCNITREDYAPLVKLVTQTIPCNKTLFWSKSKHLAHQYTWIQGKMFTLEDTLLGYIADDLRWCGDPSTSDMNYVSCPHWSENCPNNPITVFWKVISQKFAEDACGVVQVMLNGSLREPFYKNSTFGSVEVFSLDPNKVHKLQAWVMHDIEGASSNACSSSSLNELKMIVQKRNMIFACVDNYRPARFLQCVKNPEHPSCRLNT
Description: Addition of isolated brain mitochondria into medium containing 1-etheno-NAD (eNAD) results in generation of fluorescent product. This NAD catabolism is inhibited by nicotinamide mononucleotide (1 mM). […] In brain tissue of sham-operated animals the CD38 expression is very low. […] This increase is observed particularly in non-neuronal cells that resemble post-ischemic microglia.

tissue NAD(H) levels = experiment: Tissue NAD(H) levels in post-ischemic brain regions (enzymatic cycling assay); format: in vivo, mouse; conditions: 10 min forebrain ischemia, NMN intraperitoneally at 1 h of reperfusion, measured at 24 h of recovery
Description: FIGS. 3A-3B show the effect of forebrain ischemia and nicotinamide mononucleotide administration on tissue NAD(H) levels. Mice were subjected to 10 min transient forebrain ischemia and allowed to recover for 24 h. After decapitation their brains were removed, the designated regions dissected and frozen in liquid nitrogen. One group of animals received nicotinamide mononucleotide at 1 hour of recovery. The NAD content was determined following perchloric acid extraction and utilized a coupled fluorometric cycling enzymatic assay (FIG. 3A). There is significant loss of NAD^+ in striatum, CA1, and DG regions. *p<0.05. […] Black: sham; white: ischemia; gray: NMN treatment. FIG. 3B: Effect of ischemia on CD38 activity. […] The CD38 enzyme activity was determined using 1-etheno-NAD that, when hydrolyzed by CD38, generates a fluorescent product. The rate of fluorescence increase corresponds to the CD38 enzyme activity. […]
The tissue NAD(H) levels were determined utilizing an enzymatic cycling assay. […] The parietal cortex, striatum, the CA1 sector and CA3-DG regions of the hippocampus were dissected and the tissue NAD(H) levels were determined following perchloric acid extraction. […] Nicotinamide mononucleotide was administrated intraperitoneally at 1 h of reperfusion and the tissue NAD(H) content was determined at 24 h of recovery.

In the case of NC(=O)c1ccc[n+]([C@@H]2O[C@H](COP(=O)([O-])O)[C@@H](O)[C@H]2O)c1 [nicotinamide mononucleotide], the “fine motor coordination (beam walk foot faults) vs vehicle-treated TBI mice” value [1] is reported as “significant improvement in motor performance”, the “fine motor coordination (beam walk foot faults) vs vehicle-treated TBI mice” value ([1]; listed as NMN) is reported as “significantly reduced deficits in fine motor coordination” and the “NAD catabolism (eNAD fluorescent product) by isolated brain mitochondria” value (CD38) is reported as “inhibited”. The “post-ischemic brain tissue NAD(H) levels” value (tissue NAD(H) levels) was “reversed; also recorded: complete recovery of brain tissue NAD(H) levels” and the “post-ischemic brain tissue NAD(H) levels” value (tissue NAD(H) levels; listed as NMN) was “prevented the post-ischemic NAD catabolism”.
